Laboratory results from ChEMBL document CHEMBL1201862, “PubChem BioAssay data set” (2004).
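Results reflect a 48-hour exposure of cells in 96-well plates to compound at five concentrations. GI50: concentration for 50% inhibition of growth.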 The source made the active and inactive calls. Rule as the data show it: active = GI50 up to about 1.1 µM and inactive = higher.

What was measured:
Assay in all cases: inhibition of tumour cell growth, NCI panel, 48 h
NCI-H522 = system: NCI-H522
NCI-H23 = system: NCI-H23
SNB-75 = system: SNB-75
OVCAR-5 = system: OVCAR-5
SN12C = system: SN12C
SNB-19 = system: SNB-19
786-0 = system: 786-0
OVCAR-8 = system: OVCAR-8
U-251 = system: U-251
ACHN = system: ACHN
HCT-15 = system: HCT-15
DU-145 = system: DU-145
SF-295 = system: SF-295
SK-MEL-5 = system: SK-MEL-5
TK-10 = system: TK-10
HOP-92 = system: HOP-92
HOP-62 = system: HOP-62
K562 = system: K562
SR = system: SR
MDA-N = system: MDA-N

SMILES	GI50 (NCI-H522)	GI50 (NCI-H23)	GI50 (SNB-75)	GI50 (OVCAR-5)	GI50 (SN12C)	GI50 (SNB-19)	GI50 (786-0)	GI50 (OVCAR-8)	GI50 (U-251)	GI50 (ACHN)	GI50 (HCT-15) [µM]	GI50 (DU-145)	GI50 (SF-295)	GI50 (SK-MEL-5)	GI50 (TK-10)	GI50 (HOP-92)	GI50 (HOP-62)	GI50 (K562)	GI50 (SR)	GI50 (MDA-N)
O=C(NCCCCN(CCCNC(=O)C(F)(F)F)Cc1ccccc1)C(F)(F)F	> 100 µM (inactive)	> 100 µM (inactive)	> 100 µM (inactive)	> 100 µM (inactive)	> 100 µM (inactive)	> 100 µM (inactive)	> 100 µM (inactive)	> 100 µM (inactive)	> 100 µM (inactive)	> 100 µM (inactive)	> 100	> 100 µM (inactive)	> 100 µM (inactive)	> 100 µM (inactive)	> 100 µM (inactive)	> 100 µM (inactive)	> 100 µM (inactive)	> 100 µM (inactive)	–	–
CC1=C(C(=O)Nc2ccccc2)C(c2cccc3ccccc23)C(C(=O)Nc2ccccc2)=C(C)N1	16 µM (inactive)	21.7 µM (inactive)	15.6 µM (inactive)	23 µM (inactive)	18 µM (inactive)	16.4 µM (inactive)	22.4 µM (inactive)	16.7 µM (inactive)	16.5 µM (inactive)	24.2 µM (inactive)	16.2	–	17.5 µM (inactive)	19.3 µM (inactive)	31.5 µM (inactive)	24 µM (inactive)	18.7 µM (inactive)	30.4 µM (inactive)	3.11 µM (inactive)	–
Cl/C(=C\C=N\c1ccc(I)cc1)c1ccc2ccccc2c1	27.2 µM (inactive)	16 µM (inactive)	28.4 µM (inactive)	34.6 µM (inactive)	17.9 µM (inactive)	18.3 µM (inactive)	17.6 µM (inactive)	17.4 µM (inactive)	16.4 µM (inactive)	10.5 µM (inactive)	12.6	21.4 µM (inactive)	19.1 µM (inactive)	18 µM (inactive)	16.4 µM (inactive)	41.6 µM (inactive)	17.7 µM (inactive)	6.14 µM (inactive)	3.91 µM (inactive)	–
OCC1OC(n2cnc3c(Cl)nc(Nc4ccc(Cl)c(Cl)c4)nc32)CC1O (centres undefined)	9.29 µM (inactive)	10.2 µM (inactive)	15.7 µM (inactive)	13.8 µM (inactive)	10.5 µM (inactive)	20.5 µM (inactive)	8.73 µM (inactive)	10.3 µM (inactive)	10.2 µM (inactive)	8.69 µM (inactive)	8.63	11.6 µM (inactive)	7.98 µM (inactive)	8.34 µM (inactive)	8.36 µM (inactive)	8.18 µM (inactive)	10.5 µM (inactive)	8.63 µM (inactive)	–	–
O=C1C=CC(=O)c2c1ccc1c3ccccc3n(CCCCCCCCn3c4ccccc4c4ccc5c(c43)C(=O)C=CC5=O)c21	> 100 µM (inactive)	> 100 µM (inactive)	–	> 100 µM (inactive)	> 100 µM (inactive)	> 100 µM (inactive)	> 100 µM (inactive)	> 100 µM (inactive)	> 100 µM (inactive)	> 100 µM (inactive)	> 100	> 100 µM (inactive)	> 100 µM (inactive)	> 100 µM (inactive)	> 100 µM (inactive)	–	> 100 µM (inactive)	> 100 µM (inactive)	–	> 100 µM (inactive)
CN1CCCCC(C(O)(c2ccccc2)c2ccccc2)C1=O (centres undefined)	> 100 µM (inactive)	> 100 µM (inactive)	> 100 µM (inactive)	> 100 µM (inactive)	> 100 µM (inactive)	> 100 µM (inactive)	> 100 µM (inactive)	> 100 µM (inactive)	> 100 µM (inactive)	> 100 µM (inactive)	16.3	–	> 100 µM (inactive)	> 100 µM (inactive)	> 100 µM (inactive)	> 100 µM (inactive)	> 100 µM (inactive)	> 100 µM (inactive)	> 100 µM (inactive)	–
CC(CC=O)Nc1nn2c(=O)c3ccccc3nc2s1 (centres undefined)	> 100 µM (inactive)	> 100 µM (inactive)	> 100 µM (inactive)	> 100 µM (inactive)	> 100 µM (inactive)	> 100 µM (inactive)	> 100 µM (inactive)	> 100 µM (inactive)	> 100 µM (inactive)	> 100 µM (inactive)	> 100	> 100 µM (inactive)	> 100 µM (inactive)	> 100 µM (inactive)	> 100 µM (inactive)	> 100 µM (inactive)	> 100 µM (inactive)	> 100 µM (inactive)	> 100 µM (inactive)	–
[O-][n+]1c2ccccc2[n+]([O-])c2cc(Br)ccc21	12.9 µM (inactive)	21.5 µM (inactive)	26.3 µM (inactive)	27.8 µM (inactive)	21.5 µM (inactive)	33.2 µM (inactive)	10.1 µM (inactive)	14.8 µM (inactive)	14.6 µM (inactive)	4.81 µM (inactive)	13.3	24.7 µM (inactive)	20.6 µM (inactive)	13.3 µM (inactive)	26.1 µM (inactive)	–	45 µM (inactive)	4.63 µM (inactive)	2.02 µM (inactive)	–
CC(C)(C)C(=C[S+]([O-])/N=C/c1ccccc1)C(C)(C)C (centres undefined)	23 µM (inactive)	48 µM (inactive)	16.4 µM (inactive)	48.6 µM (inactive)	21.1 µM (inactive)	44.7 µM (inactive)	> 100 µM (inactive)	59.4 µM (inactive)	25.1 µM (inactive)	36.8 µM (inactive)	23	–	–	24.3 µM (inactive)	> 100 µM (inactive)	19.7 µM (inactive)	37.8 µM (inactive)	1.23 µM (inactive)	24.7 µM (inactive)	–
CC1C2C=C(O)C(=O)C(C2=O)C1c1ccccc1 (centres undefined)	> 100 µM (inactive)	> 100 µM (inactive)	82.6 µM (inactive)	> 100 µM (inactive)	–	> 100 µM (inactive)	> 100 µM (inactive)	> 100 µM (inactive)	> 100 µM (inactive)	> 100 µM (inactive)	> 100	–	> 100 µM (inactive)	> 100 µM (inactive)	> 100 µM (inactive)	> 100 µM (inactive)	> 100 µM (inactive)	> 100 µM (inactive)	> 100 µM (inactive)	–
COc1cc(C(=O)C(CO)Oc2ccccc2OC)ccc1O (centres undefined)	> 100 µM (inactive)	> 100 µM (inactive)	67 µM (inactive)	> 100 µM (inactive)	> 100 µM (inactive)	> 100 µM (inactive)	> 100 µM (inactive)	> 100 µM (inactive)	> 100 µM (inactive)	> 100 µM (inactive)	> 100	–	> 100 µM (inactive)	> 100 µM (inactive)	> 100 µM (inactive)	88.7 µM (inactive)	> 100 µM (inactive)	42.1 µM (inactive)	34.9 µM (inactive)	–
O=S1(=O)OCCOS(=O)(=O)C1(Br)Cc1ccccc1	> 100 µM (inactive)	> 100 µM (inactive)	33 µM (inactive)	> 100 µM (inactive)	> 100 µM (inactive)	> 100 µM (inactive)	> 100 µM (inactive)	> 100 µM (inactive)	> 100 µM (inactive)	> 100 µM (inactive)	> 100	–	> 100 µM (inactive)	> 100 µM (inactive)	> 100 µM (inactive)	> 100 µM (inactive)	> 100 µM (inactive)	> 100 µM (inactive)	> 100 µM (inactive)	–
CC(C)c1cc(C(C)C)c(S(=O)(=O)N=[N+]=[N-])c(C(C)C)c1	> 100 µM (inactive)	> 100 µM (inactive)	23 µM (inactive)	> 100 µM (inactive)	> 100 µM (inactive)	> 100 µM (inactive)	> 100 µM (inactive)	> 100 µM (inactive)	44 µM (inactive)	> 100 µM (inactive)	> 100	–	–	> 100 µM (inactive)	> 100 µM (inactive)	> 100 µM (inactive)	> 100 µM (inactive)	87.5 µM (inactive)	31.6 µM (inactive)	–
N=C(N)NS(=O)(=O)c1ccc(Nc2c3ccccc3nc3c(C(=O)Nc4ccc(S(N)(=O)=O)cc4)ccc(Cl)c23)cc1	> 100 µM (inactive)	> 100 µM (inactive)	> 100 µM (inactive)	> 100 µM (inactive)	> 100 µM (inactive)	> 100 µM (inactive)	> 100 µM (inactive)	58.2 µM (inactive)	> 100 µM (inactive)	> 100 µM (inactive)	> 100	–	> 100 µM (inactive)	> 100 µM (inactive)	> 100 µM (inactive)	> 100 µM (inactive)	> 100 µM (inactive)	> 100 µM (inactive)	> 100 µM (inactive)	–
C[C@H]1O[C@@H](C(C)(C)C)OC(=O)[C@@H]1C(OC(=O)c1ccccc1)c1cccc2ccccc12 (some centres undefined)	> 100 µM (inactive)	> 100 µM (inactive)	> 100 µM (inactive)	> 100 µM (inactive)	> 100 µM (inactive)	> 100 µM (inactive)	> 100 µM (inactive)	> 100 µM (inactive)	> 100 µM (inactive)	> 100 µM (inactive)	> 100	–	> 100 µM (inactive)	> 100 µM (inactive)	> 100 µM (inactive)	–	> 100 µM (inactive)	> 100 µM (inactive)	48.4 µM (inactive)	> 100 µM (inactive)
Cc1ccnc2nc(-c3ccc4ccccc4c3)cc(O)c12	0.601 µM (active)	2.56 µM (inactive)	1.03 µM (active)	6.3 µM (inactive)	4.01 µM (inactive)	3.77 µM (inactive)	1.52 µM (inactive)	2.83 µM (inactive)	–	2.96 µM (inactive)	0.43	4.1 µM (inactive)	–	–	1.75 µM (inactive)	0.592 µM (active)	2.08 µM (inactive)	0.403 µM (active)	0.296 µM (active)	–
